Paper PMC10205807, “Cross-species comparison in nonclinical pharmacokinetics of lenvatinib by a simple HPLC with ultraviolet detection” (Scientific Reports, 2023)

Experiments:
plasma protein = assay: in vitro plasma protein binding, rats; assay type: in vitro ADME
[1] = phase-1 clinical trial, oral PK in humans; assay type: in vivo; settings: human, plasma; calculated from AUCoral at 9 mg oral dose in a phase-1 study and fp 0.0172; read-out: observed CLint in humans (converted)
[2] = Stability of lenvatinib in mice plasma and processed samples; assay type: physicochemical; settings: for Frozen stability, mean percentage bias from the theoretical values: below − 15 °C, 4 weeks
Experimental: (§1) Calibration samples and QC samples for the reproducibility assessment were prepared by spiking 0.05 mL of the working standard solutions to blank plasma (0.05 mL), and QC samples for the stability assessment were prepared by fortifying 0.05 mL of the solution to 1.5 mL of bank plasma. Lenvatinib concentrations in plasma were 0.005, 0.01, 0.03, 0.1, 0.3, 1, 3, 10, 30, and 100 μg/mL for the calibration samples, and were 0.005, 0.01, 1, and 100 μg/mL for the QC samples for reproducibility assessment. Lenvatinib concentrations of QC samples for the stability assessment were 0.01, 1, and 80 μg/mL.
The developed method for the determination of lenvatinib concentrations in plasma was validated and the following validation parameters including linearity, selectivity, intra- and inter-batch reproducibility, extraction recovery, and stability were evaluated in accordance with the bioanalytical guidelines by United States Food and Drug Administration (US-FDA)[7]. The peak height ratios of lenvatinib to the IS of calibration samples were plotted against the corresponding nominal concentrations of lenvatinib. The calibration curve was prepared by the least square method with 1/(concentration)^2 as the weighting factor. In the linearity assessment, accuracy of each calibration sample was determined to ensure that relative error (RE) at each concentration was within ± 15% (within ± 20% at the LLOQ). […] Intra-batch accuracy and precision were evaluated using QC samples at the four concentrations, LLOQ, low QC (LQC), mid QC (MQC), and ULOQ. […] Inter-batch accuracy and precision were evaluated by testing a single sample at each concentration across five batches (n = 5 in total). […] Extraction recoveries of lenvatinib and the IS from plasma samples of the four species were evaluated. The recoveries of lenvatinib at the low, mid, and high QC levels (triplicates per concentration), and that of the IS (0.5 μg/mL) were determined. […] Stability of lenvatinib in plasma and processed samples was assessed at the low and high QC levels. Lenvatinib concentrations in samples after storage were compared to the theoretical concentrations and RE values were calculated. […] Freeze–thaw stability in plasma was evaluated up to three freeze–thaw cycles and frozen stability in plasma was evaluated at − 15 °C or below for 4 weeks (mice, rats, and dogs) or 6 weeks (monkeys). Stability in processed samples was assessed at 4 °C for 7 days. Stability of lenvatinib in the standard solutions was evaluated for the stock (100 μg/mL) and the working solution (5 ng/mL). The stability of the IS solution (0.5 μg/mL) was also assessed. […]

[3] = Stability of lenvatinib in monkey plasma and processed samples; assay type: physicochemical, monkeys; settings: monkey plasma; for Freeze/thaw stability, mean percentage bias from the theoretical values: 3 cycles; for Frozen stability, mean percentage bias from the theoretical values: below − 15 °C, 6 weeks
Experimental: as §1
The developed method for the determination of lenvatinib concentrations in plasma was validated and the following validation parameters including linearity, selectivity, intra- and inter-batch reproducibility, extraction recovery, and stability were evaluated in accordance with the bioanalytical guidelines by United States Food and Drug Administration (US-FDA)[7]. The peak height ratios of lenvatinib to the IS of calibration samples were plotted against the corresponding nominal concentrations of lenvatinib. The calibration curve was prepared by the least square method with 1/(concentration)^2 as the weighting factor. In the linearity assessment, accuracy of each calibration sample was determined to ensure that relative error (RE) at each concentration was within ± 15% (within ± 20% at the LLOQ). In the selectivity assessment, peak heights at the retention times of lenvatinib and the IS should be within 20% and 5% of those of the LLOQ for lenvatinib and the IS, respectively in blank plasma from six individuals. Intra-batch accuracy and precision were evaluated using QC samples at the four concentrations, LLOQ, low QC (LQC), mid QC (MQC), and ULOQ. Six replicates per concentration were assayed to calculate RE and relative standard deviation (RSD). Inter-batch accuracy and precision were evaluated by testing a single sample at each concentration across five batches (n = 5 in total). The acceptance criteria for RE and RSD in the intra- and inter-batch reproducibility should be within ± 15% and 15%, respectively, except at the LLOQ that was within ± 20% and 20%, respectively, was allowed. Extraction recoveries of lenvatinib and the IS from plasma samples of the four species were evaluated. The recoveries of lenvatinib at the low, mid, and high QC levels (triplicates per concentration), and that of the IS (0.5 μg/mL) were determined. Peak heights of lenvatinib after extraction from plasma samples were compared to those of the neat solution with the same concentrations. Stability of lenvatinib in plasma and processed samples was assessed at the low and high QC levels. Lenvatinib concentrations in samples after storage were compared to the theoretical concentrations and RE values were calculated. The RE values should be within ± 15% when considered stable. Freeze–thaw stability in plasma was evaluated up to three freeze–thaw cycles and frozen stability in plasma was evaluated at − 15 °C or below for 4 weeks (mice, rats, and dogs) or 6 weeks (monkeys). Stability in processed samples was assessed at 4 °C for 7 days. Stability of lenvatinib in the standard solutions was evaluated for the stock (100 μg/mL) and the working solution (5 ng/mL). The stability of the IS solution (0.5 μg/mL) was also assessed. The standard solutions were stored at 5 °C for 4 weeks or 6 h at ambient temperature. The peak height of the stored solutions was compared to that of the freshly prepared solution. […]

fraction unbound at 0.3 μg/mL (plasma protein; rat plasma, 0.3 μg/mL): 0.019 | fraction unbound (plasma protein; rat, plasma, rats, 0.3–30 μg/mL, read-out: average fp (unbound fraction in plasma)): 0.02 | CLint scaled [1]: 75.1 mL/min/kg | Freeze/thaw stability, mean percentage bias from the theoretical values ([2]; mice plasma, 3 cycles, HQC 80 μg/mL): 0.8% | Frozen stability, mean percentage bias from the theoretical values ([2]; mice plasma, LQC 0.01 μg/mL): 0.0% | Frozen stability, mean percentage bias from the theoretical values ([2]; mice plasma, MQC 1 μg/mL): 1.0% | Processed sample stability, mean percentage bias from the theoretical values ([2]; processed mice plasma samples, 4 °C, 7 days, HQC 80 μg/mL): 0.3% | Freeze/thaw stability, mean percentage bias from the theoretical values ([3]; HQC 80 μg/mL): 1.6% | Freeze/thaw stability, mean percentage bias from the theoretical values ([3]; MQC 1 μg/mL): 2.3% | Frozen stability, mean percentage bias from the theoretical values ([3]; HQC 80 μg/mL): 7.0% | Frozen stability, mean percentage bias from the theoretical values ([3]; LQC 0.01 μg/mL): 2.0% | Frozen stability, mean percentage bias from the theoretical values ([3]; MQC 1 μg/mL): 4.2%
Compound: COc1cc2nccc(Oc3ccc(NC(=O)NC4CC4)c(Cl)c3)c2cc1C(N)=O [lenvatinib, Lenvatinib]
